Measurements: PMC12499452, “The Multitarget Compound ZLY032 Achieves Treatment of Chronic Wounds” (Advanced Science, 2025)

How the values were obtained:
[1] = molecular target: T1, FFA1 (Homo sapiens, UniProt O14842); experiment: cellular thermal shift assay (CETSA), Western blot; format: cell-based; details: HEK293T cells
T1 construct: gene FFAR1; apparently endogenous in HEK293T cells (no transfection told); Western blot read-out

[2] = molecular target: T2, PPARδ (Homo sapiens, UniProt Q03181); experiment: cellular thermal shift assay (CETSA), Western blot; format: cell-based; details: HEK293T cells
T2 construct: gene PPARD; apparently endogenous in HEK293T cells (no transfection told); Western blot read-out
T2 sequence (Q03181 1-441): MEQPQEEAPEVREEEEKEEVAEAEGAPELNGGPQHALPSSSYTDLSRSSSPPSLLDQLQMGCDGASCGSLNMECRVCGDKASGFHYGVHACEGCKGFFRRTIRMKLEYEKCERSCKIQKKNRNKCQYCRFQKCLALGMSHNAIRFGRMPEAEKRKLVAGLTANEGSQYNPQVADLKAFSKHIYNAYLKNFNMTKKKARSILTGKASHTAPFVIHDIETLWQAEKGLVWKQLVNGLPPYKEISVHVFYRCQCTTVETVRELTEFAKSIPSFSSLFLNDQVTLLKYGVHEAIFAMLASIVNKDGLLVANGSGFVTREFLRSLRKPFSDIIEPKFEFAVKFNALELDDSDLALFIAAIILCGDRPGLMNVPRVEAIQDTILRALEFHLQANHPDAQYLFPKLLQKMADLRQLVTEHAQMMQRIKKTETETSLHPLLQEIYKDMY

[3] = molecular target: T3, ASAL (from S. aureus) (Staphylococcus aureus, UniProt Q2FIB5); experiment: surface plasmon resonance (Biacore T200, CM5 chip, immobilised protein); format: binding; details: read-out: affinity constant
T3 construct: gene argH; immobilised on CM5 chip
T3 sequence (Q2FIB5 1-459): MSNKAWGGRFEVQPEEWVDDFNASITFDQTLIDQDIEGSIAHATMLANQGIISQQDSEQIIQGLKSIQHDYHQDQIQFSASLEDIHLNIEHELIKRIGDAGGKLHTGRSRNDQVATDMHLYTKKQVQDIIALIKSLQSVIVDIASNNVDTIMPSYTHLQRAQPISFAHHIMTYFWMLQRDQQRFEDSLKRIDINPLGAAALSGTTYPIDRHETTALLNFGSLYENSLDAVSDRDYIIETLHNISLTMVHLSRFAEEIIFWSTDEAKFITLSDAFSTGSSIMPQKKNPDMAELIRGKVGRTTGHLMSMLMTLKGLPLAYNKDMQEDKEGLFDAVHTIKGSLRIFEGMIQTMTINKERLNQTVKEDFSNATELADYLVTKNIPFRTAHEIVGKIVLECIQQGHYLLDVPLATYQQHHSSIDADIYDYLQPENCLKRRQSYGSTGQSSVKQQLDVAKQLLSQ

T1 sequence (O14842 whole entry): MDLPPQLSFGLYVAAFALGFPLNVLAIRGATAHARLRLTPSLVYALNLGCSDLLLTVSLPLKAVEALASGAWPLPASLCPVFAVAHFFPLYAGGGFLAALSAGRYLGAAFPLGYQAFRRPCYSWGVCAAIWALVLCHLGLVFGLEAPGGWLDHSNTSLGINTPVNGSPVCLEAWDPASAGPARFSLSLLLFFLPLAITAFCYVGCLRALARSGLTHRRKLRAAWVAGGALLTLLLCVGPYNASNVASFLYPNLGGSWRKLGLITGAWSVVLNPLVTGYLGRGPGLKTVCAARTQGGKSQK

Structure (SMILES): Cc1nc(-c2ccc(C(F)(F)F)cc2)sc1COc1ccc2c(c1)OC[C@H]2CC(=O)O [ZLY032]
- cellular thermal shift assay (CETSA), Western blot [1]: ZLY032 had direct binding ability with FFA1 and PPARδ (Figure S11, Supporting Information)
- cellular thermal shift assay (CETSA), Western blot [2]: ZLY032 had direct binding ability with FFA1 and PPARδ (Figure S11, Supporting Information)
- Kd [3]: 10.9 µM
